Results published in patent publication EP4671246A1, “6-ALKOXYPYRAZOLOPYRIMIDINE COMPOUND AND PHARMACEUTICAL USE THEREOF” (Japan Tobacco Inc., priority 2023, dated 2024).

Biological target: T1, NLRP3 inflammasome (Homo sapiens, UniProt Q96P20)
T1 construct: host or cells: THP1-Null cells (PMA-differentiated, LPS-primed, nigericin-stimulated)
Assay: Evaluation of NLRP3 inflammasome inhibitory activity (inhibition of IL-1β production in THP1-Null cells)
Assay type: cell-based
Conditions: 0.5 µmol/L PMA overnight, 1 µg/mL Lipopolysaccharides 3 hours, Nigericin 7.5 µmol/L 1.5 hours, AlphaLISA Human IL-1β
Procedure: The NLRP3 inflammasome inhibitory activity of test compounds were evaluated on the basis of the inhibitory activity of the IL-1β production in THP1-Null cells (Product Number: thp-null, InvivoGen). Cells were maintained for culture in RPMI-1640 media containing 10% (v/v) fetal bovine serum, 25 mmol/L HEPES, 100 U/mL penicillin, 100 µg/mL streptomycin, 100 µg/mL normocin, and 200 µg/mL hygromycin B (set at 37°C, 5% CO2/95% air) .
Cells were suspended with media for assay containing 0.5 µmol/L PMA (RPMI-1640 media containing 10% (v/v) fetal bovine serum, 100 U/mL penicillin, and 100 µg/mL streptomycin), and the suspended cells were seeded on Corning (registered trademark) 384-well Flat Clear Bottom Black Polystyrene TC-treated Microplates (25,000 cells/25 µL/well), followed by incubation (set at 37°C, 5% CO2/95% air) overnight. The supernatant of the culture was removed, and thereto was added media for assay (25 µL/well) containing 1 µg/mL Lipopolysaccharides (Product Number: L2654, Sigma-Aldrich (registered trademark)). Then, the culture was further incubated for 3 hours (set at 37°C, 5% CO2/95% air) . The supernatant of the culture was removed. Then, a vehicle solution prepared from Opti-MEM (trademark) medium (Product Number: 31985-070, Invitrogen) was added to blank-setting wells and control-setting wells (20 µL/well), followed by incubation for 15 minutes (set at 37°C, 5% CO2/95% air). A solution containing a test compound (20 µL/well) was added to test compound-setting wells. Further, Opti-MEM (trademark) medium containing Nigericin (Product Number: N7143, Sigma-Aldrich (registered trademark)) was added to the control-setting wells and test compound-setting wells (5 µL/well), followed by incubation for 1.5 hours (set at 37°C, 5% CO2/95% air). The final concentration of Nigericin was adjusted to be 7.5 µmol/L. 5 µL/well of Opti-MEM (trademark) medium was added to the blank-setting wells. The supernatant of the culture was cryonically stored (set at -20°C) until measurement of IL-1β.
The amount of IL-1β in the culture supernatant was quantitated with AlphaLISA (registered trademark) Human IL-1β Detection Kit (Product Number: AL220C, Perkin Elmer). Fluorescence intensity was measured with a microplate reader EnSpier (Model number: 2300-00J, Perkin Elmer) or EnSight (Model number: HH34000000, Perkin Elmer) according to procedure manuals attached thereto. Inhibition rates of the test compound-setting wells were calculated on the basis of 100% for the blank-setting wells and 0% for the control-setting wells. IC50 values (i.e., 50% inhibitory concentrations) of the test compounds were calculated by logistic regression analysis.

T1 sequence (Q96P20 whole entry): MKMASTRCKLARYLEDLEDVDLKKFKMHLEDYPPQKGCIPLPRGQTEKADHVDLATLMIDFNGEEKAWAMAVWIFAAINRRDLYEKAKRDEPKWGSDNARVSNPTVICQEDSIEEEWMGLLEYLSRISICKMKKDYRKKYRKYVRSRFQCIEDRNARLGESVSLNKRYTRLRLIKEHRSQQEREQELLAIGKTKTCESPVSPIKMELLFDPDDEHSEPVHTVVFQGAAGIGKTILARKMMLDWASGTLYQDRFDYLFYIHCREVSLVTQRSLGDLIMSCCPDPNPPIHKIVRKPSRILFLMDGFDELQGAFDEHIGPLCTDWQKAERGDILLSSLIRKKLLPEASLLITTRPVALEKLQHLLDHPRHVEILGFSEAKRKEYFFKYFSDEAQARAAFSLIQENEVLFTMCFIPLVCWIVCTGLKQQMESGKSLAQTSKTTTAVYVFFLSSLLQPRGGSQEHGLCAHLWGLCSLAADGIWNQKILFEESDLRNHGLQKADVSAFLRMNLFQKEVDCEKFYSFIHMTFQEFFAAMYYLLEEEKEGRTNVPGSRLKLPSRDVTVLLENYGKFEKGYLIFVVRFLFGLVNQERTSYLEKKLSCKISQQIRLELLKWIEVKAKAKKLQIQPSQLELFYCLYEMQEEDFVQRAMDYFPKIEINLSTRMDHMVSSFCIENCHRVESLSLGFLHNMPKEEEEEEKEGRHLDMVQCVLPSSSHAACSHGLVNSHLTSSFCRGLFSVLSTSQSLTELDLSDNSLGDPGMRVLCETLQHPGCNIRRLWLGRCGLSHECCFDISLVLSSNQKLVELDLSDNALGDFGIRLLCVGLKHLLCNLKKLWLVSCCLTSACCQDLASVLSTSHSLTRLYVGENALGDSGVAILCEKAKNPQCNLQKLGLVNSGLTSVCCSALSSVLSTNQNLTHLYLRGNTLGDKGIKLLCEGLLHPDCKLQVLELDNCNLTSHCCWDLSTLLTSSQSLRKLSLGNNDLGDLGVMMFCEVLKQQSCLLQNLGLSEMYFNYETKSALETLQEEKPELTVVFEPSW

Compound	IC50 [nM]
COc1nc2nn(-c3ccc(Br)cc3C(O)C3CC3)cc2c(=O)[nH]1 (racemic) [Example 53]	160
COc1nc2nn(-c3c(C)cc(C4CC4(F)F)cc3C)cc2c(=O)[nH]1 (racemic) [Example 120]	88
COc1nc2nn(-c3ccccc3C)cc2c(=O)[nH]1 [Example 1]	4200
COc1nc2nn(-c3ccc(C)cc3C)cc2c(=O)[nH]1 [Example 2]	79
Cc1cc(C)c(-n2cc3c(=O)[nH]c(OCC4CC4)nc3n2)c(C)c1 [Example 3]	9
COCCOc1nc2nn(-c3c(C)cc(C)cc3C)cc2c(=O)[nH]1 [Example 4]	74
Cc1cc(C)c(-n2cc3c(=O)[nH]c(OC(C)C)nc3n2)c(C)c1 [Example 5]	34
Cc1cc(C)c(-n2cc3c(=O)[nH]c(OCC(F)(F)F)nc3n2)c(C)c1 [Example 6]	180
Cc1cc(C)c(-n2cc3c(=O)[nH]c(OCc4ccccc4)nc3n2)c(C)c1 [Example 7]	72
COc1nc2nn(-c3c(C)cc(C)cc3C)cc2c(=O)[nH]1 [Example 8]	37
CCOc1nc2nn(-c3c(C)cc(C)cc3C)cc2c(=O)[nH]1 [Example 9]	23
[2H]C([2H])([2H])Oc1nc2nn(-c3ccc(C(F)(F)F)cc3OC([2H])([2H])[2H])cc2c(=O)[nH]1 [Example 10]	61
COc1nc2nn(-c3ccc(Cl)cc3C)cc2c(=O)[nH]1 [Example 11]	50
COc1nc2nn(-c3c(C)cc(Br)cc3C)cc2c(=O)[nH]1 [Example 12, 2-(4-bromo-2,6-dimethylphenyl)-6-methoxy-2,5-dihydro-4H-pyrazolo[3,4-d]pyrimidin-4-one]	9
COc1cc(C)c(-n2cc3c(=O)[nH]c(OC)nc3n2)c(C)c1 [Example 13, 6-methoxy-2-(4-methoxy-2,6-dimethylphenyl)-2,5-dihydro-4H-pyrazolo[3,4-d]pyrimidin-4-one]	22
COc1nc2nn(-c3c(C)cc(C4CC4)cc3C)cc2c(=O)[nH]1 [Example 14]	8
COc1nc2nn(-c3c(Cl)cc(C(F)(F)F)cc3OC)cc2c(=O)[nH]1 [Example 15]	1300
Cc1cc(Br)cc(C)c1-n1cc2c(=O)[nH]c(OC3CCOCC3)nc2n1 [Example 16]	25
Cc1cc(Br)cc(C)c1-n1cc2c(=O)[nH]c(OCC3(C#N)CC3)nc2n1 [Example 17]	73
COCC1(COc2nc3nn(-c4c(C)cc(Br)cc4C)cc3c(=O)[nH]2)CC1 [Example 18]	34
Cc1cc(Br)cc(C)c1-n1cc2c(=O)[nH]c(OCCC(C)(C)O)nc2n1 [Example 20]	22
Cc1cc(Br)cc(C)c1-n1cc2c(=O)[nH]c(OCC(C)(C)O)nc2n1 [Example 21]	74
COc1nc2nn(-c3c(C)cc(C(F)(F)F)cc3C)cc2c(=O)[nH]1 [Example 22]	43

Compound	IC50 [nM]
COc1nc2nn(-c3c(C)cc(Br)cc3C)cc2c(=O)n1C [Example 23]	680
COc1ccc(-n2cc3c(=O)[nH]c(OC)nc3n2)c(C(F)(F)F)c1 [Example 24]	53
Cc1cc(Br)cc(C)c1-n1cc2c(=O)[nH]c(OCCN(C)C)nc2n1 [Example 25]	53
COc1nc2nn(-c3cc(C)c(Cl)cc3C)cc2c(=O)[nH]1 [Example 26]	1200
COc1nc2nn(-c3c(C)cc(C4(O)CCC4)cc3C)cc2c(=O)[nH]1 [Example 27]	990
COc1nc2nn(-c3c(C)cc(C4CC4)cc3F)cc2c(=O)[nH]1 [Example 28]	15
COc1nc2nn(-c3c(C)cc(C4CC4)cc3OC)cc2c(=O)[nH]1 [Example 29]	54
Cc1cc(Br)cc(C)c1-n1cc2c(=O)[nH]c(OCCC3COC3)nc2n1 [Example 30]	51
COc1nc2nn(-c3c(C)cc(C(C)(C)O)cc3C)cc2c(=O)[nH]1 [Example 31]	2400
COc1nc2nn(-c3ccc(Cl)c(C)c3C)cc2c(=O)[nH]1 [Example 32]	760
Cc1cc(Br)cc(C)c1-n1cc2c(=O)[nH]c(OC(C)C)nc2n1 [Example 33]	24
CCOc1nc2nn(-c3c(C)cc(Br)cc3C)cc2c(=O)[nH]1 [Example 34]	12
Cc1cc(Br)cc(C)c1-n1cc2c(=O)[nH]c(OCCCS(C)(=O)=O)nc2n1 [Example 35]	7
Cc1cc(Br)cc(C)c1-n1cc2c(=O)[nH]c(O[C@@H]3CCOC3)nc2n1 [Example 36]	19
Cc1cc(Br)cc(C)c1-n1cc2c(=O)[nH]c(O[C@H]3CCOC3)nc2n1 [Example 37]	13
Cc1cc(C2CC2)cc(C)c1-n1cc2c(=O)[nH]c(OCCCS(C)(=O)=O)nc2n1 [Example 38]	8
COc1nc2nn(-c3c(C)cc(OC(F)F)cc3C)cc2c(=O)[nH]1 [Example 39, 2-(4-(difluoromethoxy)-2,6-dimethylphenyl)-6-methoxy-2,5-dihydro-4H-pyrazolo[3,4-d]pyrimidin-4-one]	18
COc1nc2nn(-c3ccc(C4CC4)cc3OC)cc2c(=O)[nH]1 [Example 40]	49
COCc1cc(Br)ccc1-n1cc2c(=O)[nH]c(OC)nc2n1 [Example 41]	70
COCc1cc(C2CC2)ccc1-n1cc2c(=O)[nH]c(OC)nc2n1 [Example 42]	63
COc1nc2nn(-c3ccc(Br)cc3C(F)(F)F)cc2c(=O)[nH]1 [Example 43]	38
Cc1cc(Br)cc(C)c1-n1cc2c(=O)[nH]c(OC3CCS(=O)(=O)CC3)nc2n1 [Example 44]	43
COc1nc2nn(-c3ccc(C4CC4)cc3C(F)(F)F)cc2c(=O)[nH]1 [Example 45]	14

Compound	IC50 [nM]
Cc1cc(C2CC2)cc(C)c1-n1cc2c(=O)[nH]c(OC3CCS(=O)(=O)CC3)nc2n1 [Example 46]	33
COc1nc2nn(-c3ccc(Br)cc3C3CC3)cc2c(=O)[nH]1 [Example 47]	53
COc1ccc(-n2cc3c(=O)[nH]c(OC)nc3n2)c(C2CC2)c1 [Example 48]	190
CCOc1nc2nn(-c3ccc(OC)cc3Br)cc2c(=O)[nH]1 [Example 49]	73
CCOc1nc2nn(-c3c(C)cc(C4CC4)cc3C)cc2c(=O)[nH]1 [Example 50]	10
CCOc1nc2nn(-c3c(C)cc(OC)cc3C)cc2c(=O)[nH]1 [Example 51]	27
Cc1cc(Br)cc(C)c1-n1cc2c(=O)[nH]c(OC3CCC(S(C)(=O)=O)CC3)nc2n1 (centres unmarked) [Example 52]	59
CCOc1nc2nn(-c3c(C)cc(OC(F)F)cc3C)cc2c(=O)[nH]1 [Example 54]	13
COc1nc2nn(-c3ccc(Cl)cc3CC3CC3)cc2c(=O)[nH]1 [Example 55]	70
COc1nc2nn(-c3ccc(C4CC4)cc3C3CC3)cc2c(=O)[nH]1 [Example 56]	18
COc1nc2nn(-c3c(C)cc(Cl)cc3C)cc2c(=O)[nH]1 [Example 57]	58
Cc1cc(Br)cc(C)c1-n1cc2c(=O)[nH]c(OCCCS(=O)(=O)C(C)C)nc2n1 [Example 58]	6
COc1nc2nn(-c3ccc(Br)cc3C(F)F)cc2c(=O)[nH]1 [Example 59]	55
COc1nc2nn(-c3ccc(C4CC4)cc3C(F)F)cc2c(=O)[nH]1 [Example 60]	16
COc1nc2nn(-c3c(C)cc(OC(F)(F)F)cc3C)cc2c(=O)[nH]1 [Example 61]	69
Cc1cc(C2CC2)cc(C)c1-n1cc2c(=O)[nH]c(OCCCS(=O)(=O)C(C)C)nc2n1 [Example 62]	4
COc1nc2nn(-c3ccc(OC(F)F)cc3C(F)(F)F)cc2c(=O)[nH]1 [Example 63]	80
Cc1cc(Br)cc(C)c1-n1cc2c(=O)[nH]c(OCCCS(=O)(=O)C(C)(C)C)nc2n1 [Example 64]	7
COc1nc2nn(-c3c(C)cc(C(F)F)cc3C)cc2c(=O)[nH]1 [Example 65]	140
COc1nc2nn(-c3c(C)cc(OC(F)F)cc3F)cc2c(=O)[nH]1 [Example 66]	78
Cc1cc(Br)cc(C)c1-n1cc2c(=O)[nH]c(OCC(F)F)nc2n1 [Example 67]	43
Cc1cc(C2CC2)cc(C)c1-n1cc2c(=O)[nH]c(OCC(F)F)nc2n1 [Example 68]	25
